In patent US6444670B2 (Wyeth, priority 1998, dated 2002):

Experiments:
[1] = target: T1, Human recombinant PTP1B (hPTP1B) (Homo sapiens, UniProt P18031); type: biochemical
T1 construct: made in house
T1 sequence (P18031 1-435): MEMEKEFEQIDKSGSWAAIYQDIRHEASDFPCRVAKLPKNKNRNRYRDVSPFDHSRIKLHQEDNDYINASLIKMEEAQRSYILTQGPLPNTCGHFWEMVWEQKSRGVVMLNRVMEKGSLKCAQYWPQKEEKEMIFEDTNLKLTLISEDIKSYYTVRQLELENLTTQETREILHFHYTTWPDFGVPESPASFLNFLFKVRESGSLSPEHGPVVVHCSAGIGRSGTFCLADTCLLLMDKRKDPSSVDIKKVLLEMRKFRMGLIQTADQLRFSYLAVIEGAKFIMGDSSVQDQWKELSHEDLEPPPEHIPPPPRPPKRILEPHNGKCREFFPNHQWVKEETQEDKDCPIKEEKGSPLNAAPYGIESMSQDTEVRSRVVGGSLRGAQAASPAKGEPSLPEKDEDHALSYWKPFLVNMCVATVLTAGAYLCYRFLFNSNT

[2] = tested on: rat hepatic microsomal PTPases; conditions: 50 μM compound

Row | Compound | IC50 [1] [nM] | % Change from Control [2] [%]
1 | Cc1sc2cc3ccccc3c(-c3ccc(O[C@H](Cc4ccccc4)C(=O)O)c(C(C)C)c3)c2c1C [Example 41, (R)-2-[4-(2,3-dimethyl-naphtho[2,3-b]thiophen-4-yl)-2-isopropyl-phenoxy]-3-phenyl-propionic acid] | 729 | −39.60
2 | CCc1cc(-c2c3ccccc3c(Br)c3sc(C)c(C)c23)cc(CC)c1O[C@H](Cc1ccccc1)C(=O)NCC(=O)O [Example 63, {(2R)-2-[4-(9-Bromo-2,3-dimethyl-naphtho[2,3-b]thiophen-4-yl)-2,6-diethyl-phenoxy]-3-phenyl-propionylamino}-acetic acid] | 138 | –
3 | CCCc1cc(-c2c3ccccc3c(Br)c3sc(C)c(C)c23)ccc1O[C@H](Cc1ccccc1)C(=O)O [Example 83, (R)-2-[4-(9-Bromo-2-,3-dimethyl-naphtho[2,3-b]thiophen-4-yl)-2-propyl-phenoxy]-3-phenyl-propionic acid] | 130 | –
4 | 9-Bromo-4-(3-bromo-methoxy-5-nitro-phenyl)-2,3-dimethyl-naphtho[2,3-b]thiophene [Example 57] | 1900 | –
5 | CCc1cc(-c2c3ccccc3cc3sc(C)c(C)c23)cc(CC)c1O[C@H](Cc1ccccc1)C(=O)NCC(=O)O [Example 68, {(2R)-2-[4-(2,3 -Dimethyl-naphtho[2,3-b]thiophen-4-yl)-2,6-diethyl-phenoxy]-3-phenyl-propionylamino}-acetic acid] | 80 | –
6 | Cc1sc2cc3ccccc3c(-c3ccc(O[C@H](Cc4ccccc4)C(=O)O)c(F)c3)c2c1C [Example 51, (R)-2-[4-(2,3-Dimethyl-naphtho[2,3-b]thiophen-4-yl)-2-fluoro-phenoxy]-3-phenyl-propionic acid] | 2210 | –
7 | Cc1sc2cc3ccccc3c(-c3ccc(O[C@H](C)C(=O)O)c(C4CCCC4)c3)c2c1C [Example 71, (R)-2-[2-Cyclopentyl-4-(2-,3-dimethyl-naphtho[2,3-b]thiophen-4-yl)-phenoxy]-propionic acid] | 1190 | –
8 | Cc1oc2cc3ccccc3c(-c3cc(Br)c(O[C@H](Cc4ccccc4)C(=O)O)c(Br)c3)c2c1C [Example 54, (2R)-2-[2,6-Dibromo-4-(2,3-dimethyl-naphtho[2,3-b]furan-4-yl)-phenoxy]-3-phenyl-propionic acid] | 982 | –
9 | Cc1sc2c(Br)c3ccccc3c(-c3cc(Br)c(OC(Cc4ccccc4)C(=O)O)c([N+](=O)[O-])c3)c2c1C (stereo not shown) [Example 38, [2-Bromo-4-(9-bromo-2,3-dimethyl-naphtho[2,3-b]thiophen-4-yl)-2-nitro-phenoxy]-3-phenyl-propionic acid] | 299 | −57.74
10 | Cc1cc(-c2c3ccccc3c(Br)c3sc(C)c(C)c23)cc(C)c1O[C@H](Cc1ccccc1)C(=O)NCC(=O)O [Example 62, {(2R)-2-[4-(9-Bromo-2,3-dimethyl-naphtho[2,3-b]thiophen-4-yl)-2,6-dimethyl-phenoxy]-3-phenyl-propionylamino}-acetic acid] | 28 | –
11 | CCc1cc(-c2c3ccccc3cc3oc(C)c(C)c23)cc(Br)c1O[C@H](Cc1ccccc1)C(=O)O [Example 79, (R)-2-[2-Bromo-4-(2-,3-dimethyl-naphtho[2,3-b]furan-4-yl)-6-ethyl-phenoxy]-3-phenyl-propionic acid] | 780 | –
12 | CCN(CC)Cc1sc2c(Br)c3ccccc3c(-c3cc(C(C)C)c(O[C@H](Cc4ccccc4)C(=O)O)c(C(C)C)c3)c2c1C [Example 88, (2R)-2-[4-(9-Bromo-2-diethylaminomethyl-3-methyl-naphtho[2,3-b]thiophen-4-yl)-2,6-diisopropyl-phenoxy]-3-phenyl-propionic acid] | 320 | –
13 | Cc1c(CN2CCOCC2)sc2c(Br)c3ccccc3c(-c3cc(Br)c(OC(C)C(=O)O)c(Br)c3)c12 (stereo not shown) [Example 36, 2-[2,6-Dibromo-4-(9-bromo-3-methyl-2-morpholin-4-ylmethyl-naphtho[2,3-b]thiophen-4-yl)-phenoxy]-propionic acid] | 1340 | −67.00
14 | Cc1sc2c(Br)c3ccccc3c(-c3ccc(O[C@H](Cc4ccccc4)C(=O)O)c(F)c3)c2c1C [Example 52, (R)-2-[4-(9-Bromo-2,3-dimethyl-naphtho[2,3-b]thiophen-4-yl)-2-fluoro-phenoxy]-3-phenyl-propionic acid] | 287 | −87.66
15 | CCc1cc(-c2c3ccccc3cc3oc(C)c(C)c23)cc(Br)c1O [Example 78, 2-Bromo-4-(2-,3-dimethyl-naphtho[2,3-b]furan-4-yl)-6-ethyl-phenol] | 270 | –
16 | Cc1sc2c(Br)c3ccccc3c(-c3cc(N)c(O)c(Br)c3)c2c1C [Example 23, 2-Amino-6-bromo-4-(9-bromo-2,3-dimethyl-naphtho[2,3-b]thiophen-4-yl)-phenol] | 743 | −26.11
17 | [2-Bromo-4-(9-bromo-2,3-dimethyl-naphtho[2,3-b]thiophen-4-yl)-2-nitro-phenoxy]-acetic acid [Example 24] | – | −65.31
18 | Cc1sc2c(Br)c3ccccc3c(-c3ccc(O[C@H](Cc4ccccc4)C(=O)O)c(C4CCCC4)c3)c2c1C [Example 47] | 95 | −68.48
19 | Cc1cc(-c2c3ccccc3cc3sc(C)c(C)c23)cc(C)c1O[C@H](Cc1ccccc1)C(=O)O [Example 46, (R)-2-[4-(2,3-Dimethyl-naphtho[2,3-b]thiophen-4-yl)-2,6-dimethyl-phenoxy]-3-phenyl-propionic acid] | 1190 | −91.00
20 | Cc1sc2cc3ccccc3c(-c3ccc(O[C@H](Cc4ccccc4)C(=O)O)c(C4CCCC4)c3)c2c1C [Example 45, (R)-2-[2-Cyclopentyl-4-(2,3-dimethyl-naphtho[2,3-b]thiophen-4-yl)-phenoxy]-3-phenyl-propionic acid] | 203 | −94.50
21 | Cc1sc2c(Br)c3ccccc3c(-c3cc(C(C)C)c(O[C@H](Cc4ccccc4)C(=O)O)c(C(C)C)c3)c2c1C [Example 55, (2R)-2-[4-(9-Bromo-2,3-dimethyl-naphtho[2.3-b]thiophen-4-yl)-2,6-diisopropyl-phenoxy]-3-phenyl-propionic acid] | 59 | –
22 | Cc1sc2c(Br)c3ccccc3c(-c3ccc(O[C@H](C)C(=O)O)c(C4CCCC4)c3)c2c1C [Example 72, (R)-2-[4-(9-Bromo-2-,3-dimethyl-naphtho[2,3-b]thiophen-4-yl)-2-cyclopentyl-phenoxy]-propionic acid] | 480 | –
23 | CCc1cc(-c2c3ccccc3cc3sc(C)c(C)c23)ccc1O[C@H](Cc1ccccc1)C(=O)O [Example 76, (R)-2-[4-(2-,3-Dimethyl-naphtho[2,3-b]thiophen-4-yl)-2-ethyl-phenoxy]-3-phenyl-propionic acid] | 450 | –
24 | Cc1sc2c(Br)c3ccccc3c(-c3ccc(O[C@H](Cc4ccccc4)C(=O)O)cc3)c2c1C [Example 64, (2R)-2-[4-(9-Bromo-2,3-dimethyl-naphtho[2,3-b]thiophen-4-yl)-phenoxy]-3-phenyl-propionic acid] | 390 | –
25 | Ammonium molybdate tetrahydrate [reference compound] | 8700 | –
26 | Cc1sc2c(Sc3ccccc3)c3ccccc3c(-c3cc(Br)c(O[C@H](C)C(=O)O)c(Br)c3)c2c1C [Example 34, (R)-2-[2,6-Dibromo-4-(2,3-dimethyl-9-phenylsulfanyl-naphtho[2,3-b]thiophen-4-yl)-phenoxy]-propionic acid] | 100 | −63.01
27 | CCc1cc(-c2c3ccccc3c(Br)c3oc(C)c(C)c23)cc(CC)c1O[C@H](Cc1ccccc1)C(=O)O [Example 70, (R)-2-[4-(9-Bromo-2-,3-dimethyl-naphtho[2,3-b]furan-4-yl)-2.6-diethyl-phenoxy]-3-phenyl-propionic acid] | 330 | –
28 | CCN(CC)Cc1sc2c(Br)c3ccccc3c(-c3cc(Br)c(O[C@H](Cc4ccccc4)C(=O)O)c(Br)c3)c2c1C [Example 37, (R)-2-[2,6-Dibromo-4-(9-bromo-2-diethylaminomethyl-3-methyl-naphtho[2,3-b]thiophen-4-yl)-phenoxy]-3-phenyl-propionic acid] | 352 | −49.83
29 | Cc1sc2cc3ccccc3c(-c3cc(C(C)C)c(O[C@H](Cc4ccccc4)C(=O)O)c(C(C)C)c3)c2c1C [Example 50, (R)-2-[4-(2,3-Dimethyl-naphtho[2,3-b]thiophen-4-yl)-2,6-diisopropyl-phenoxy]-3-phenyl-propionic acid] | 457 | −81.27
